Drawing on ChEMBL document CHEMBL5244273, “Tuberculosis: An Overview of the Immunogenic Response, Disease Progression, and Medicinal Chemistry Efforts in the Last Decade toward the Development of Potential Drugs for Extensively Drug-Resistant Tuberculosis Strains” (J Med Chem, 2021), this text covers EC50, IC50 and MIC for 40 compounds.

For orientation: EC50 means the concentration that produces a half-maximal response. What is called IC50 is the point on the concentration scale where inhibition reaches its midpoint. A word on the MIC: it is the least concentration at which growth counts as inhibited.

The subject of experiment [1] is Mycobacterium tuberculosis. Description: Potentiation of ethionamide induced antibacterial activity against Mycobacterium tuberculosis H37Rv expressing GFP incubated for 5 days by fluorescence based analysis. It counts as functional, organism-based. The conditions noted are these: 120 h.
Experiment [2] deals with Mycobacterium tuberculosis. Description: Antimycobacterial activity against Mycobacterium tuberculosis H37Rv infected in human THP-1 cells assessed as inhibition of bacterial growth. It counts as functional, organism-based.
For experiment [3], the system named is Mycobacterium tuberculosis. Description: Antimycobacterial activity against Mycobacterium tuberculosis H37Rv assessed as inhibition of bacterial growth incubated for 5 days by alamar blue assay. It counts as functional. The conditions noted are these: 120 h, time 5 day.
The test system of experiment [4] is Mycobacterium tuberculosis. The experiment in a line: Antimycobacterial activity against Mycobacterium tuberculosis H37Rv assessed as inhibition of bacterial growth by resazurin dye based fluorescence analysis. Type of experiment: functional. On the technique in general: Resazurin is reduced to fluorescent resorufin, in cell work by metabolically active cells.

The structures appear in SMILES notation. Values after ≈ are worked out from the molar mass of the structure shown.

`O=C(CCC(F)(F)F)N1CCC(F)(c2ccnc(Cl)c2)CC1`: in experiment [1], the 50% effective concentration (EC50) was below 0.15 µM. Also, the IC50 in experiment [2] came to 0.01 µM.

`COc1ccc(NC(=O)c2c(Nc3cccc(C)c3C)nn3c(O)cc(C)nc23)cc1`: in experiment [3], the MIC was 50 mg/L (≈ 120 µM). The same measure, in the same setting: the result for `CCOc1ccc(NC(=O)c2c(Nc3ccccc3)nn3c(O)cc(C)nc23)cc1` reads 50 mg/L (≈ 124 µM); that for `Cc1cc(O)n2nc(Nc3ccc(F)cc3)c(C(=O)Nc3cccc(Cl)c3)c2n1`, 12.5 mg/L (≈ 30.4 µM). On the same count and under the same terms, in the case of `Cc1ccc(NC(=O)c2c(Nc3ccccc3)nn3c(O)cc(C)nc23)cc1` it was 50 mg/L (≈ 134 µM).

Consider `CC(c1ccc(F)cc1)n1nnc(-c2ccc(S(=O)(=O)NCCO)cc2)n1` (configuration not stated), for which the MIC in experiment [4] stood at 0.1 µM (≈ 0.0391 µg/mL). Turning to `Cc1ccc(Nc2nn3c(O)cc(C)nc3c2C(=O)Nc2ccc(F)cc2)c(C)c1`, the MIC in experiment [3] worked out at 50 mg/L (≈ 123 µM). As to `O=C(CCC(F)(F)F)N1CC(C2CCCCC2)C1`, in experiment [1], the EC50 is below 0.01 µM. In experiment [2], the IC50 is 0.01 µM. With `O=C(CCC(F)(F)F)N1CCC(F)(c2ccnc(F)c2)CC1`, the EC50 in experiment [1] is below 0.15 µM. For the same compound, the IC50 in experiment [2] amounted to 0.01 µM. For `CCN1CCN(c2nn3c(O)cc(C)nc3c2C(=O)Nc2cccc(Cl)c2Cl)CC1`, the MIC in experiment [3] came out at 50 mg/L (≈ 111 µM). On to `O=C(CCC(F)(F)F)N1CCC(F)(c2cncc(Cl)c2)CC1`, for which the EC50 in experiment [1] is below 0.15 µM. Besides, in experiment [2], the IC50 was 0.01 µM. Consider `O=C(CCC(F)(F)F)N1CCC2(CC1)CC(Br)=NO2`, for which the EC50 in experiment [1] was below 0.038 µM. The IC50 in experiment [2] came out at 0.05 µM. On to `C[C@H](c1ccc(F)cn1)n1nnc(-c2ccc(S(=O)(=O)NCCO)cc2)n1`, for which the MIC in experiment [4] turned out to be 0.1 µM (≈ 0.0392 µg/mL).

Regarding `O=S(=O)(NCCO)c1ccc(-c2nnn(CC3CCOCC3)n2)cc1`, the MIC in experiment [4] was determined as 0.1 µM (≈ 0.0367 µg/mL).

Turning to `O=C(CCC(F)(F)F)N1CC(c2cccc(Cl)c2)C1`, in experiment [1], the EC50 was below 0.01 µM. Further, the IC50 in experiment [2] turned out to be 0.01 µM. Take `O=C(CCC(F)(F)F)N1CCC(F)(c2cncc(C(F)(F)F)c2)CC1`: the EC50 in experiment [1] is below 0.15 µM. In addition, in experiment [2], the IC50 came out at 0.01 µM. Turning to `CC(c1ccc(F)cc1)n1cc(-c2ccc(S(=O)(=O)NCCO)cc2)nn1` (configuration not stated), the MIC in experiment [4] turned out to be 0.1 µM (≈ 0.039 µg/mL). As for `O=C(CCC(F)(F)F)N1CCC(F)(c2cc(C(F)(F)F)ccn2)CC1`, the EC50 in experiment [1] was below 0.15 µM. For the same compound, the IC50 in experiment [2] came to 0.01 µM. With `O=S(=O)(NCCO)c1ccc(-c2nnn(Cc3cccnc3)n2)cc1`, in experiment [4], the MIC worked out at 0.1 µM (≈ 0.036 µg/mL).

`COC1=NOC2(CCN(C(=O)CCCl)CC2)C1`: the EC50 in experiment [1] was below 0.038 µM. Besides, in experiment [2], the IC50 turned out to be 0.05 µM.

`O=C(CCCl)N1CCC2(CC1)CC(C(F)(F)F)=NO2`: the EC50 in experiment [1] is below 0.038 µM. Also, the IC50 in experiment [2] was 0.05 µM. Consider `CCC1=NOC2(CCN(C(=O)CCC(F)(F)F)CC2)C1`, for which the EC50 in experiment [1] was below 0.038 µM. The IC50 in experiment [2] amounted to 0.05 µM.

`O=C(CCC(F)(F)F)N1CCC(c2ccnc(Cl)c2)CC1`: the EC50 in experiment [1] was below 0.15 µM. Moreover, the IC50 in experiment [2] was determined as 0.01 µM. For `CCOC1=NOC2(CCN(C(=O)CCC(F)(F)F)CC2)C1`, the EC50 in experiment [1] is below 0.038 µM. The IC50 in experiment [2] came out at 0.05 µM.

On to `Cc1cc(S(=O)(=O)NCCO)c(F)cc1-c1nnn(Cc2ccc(F)cn2)n1`, for which, in experiment [4], the MIC was determined as 0.1 µM (≈ 0.041 µg/mL). On to `O=C(CCC(F)(F)F)N1CCC2(CC1)CC(OCC(F)(F)F)=NO2`, for which, in experiment [1], the EC50 was below 0.038 µM. For the same compound, the IC50 in experiment [2] is 0.05 µM. On the same counts, the results for `O=C(CCC(F)(F)F)N1CCC(c2cnc(F)c(F)c2)CC1` are below 0.15 µM and 0.01 µM.

With `CCCOC1=NOC2(CCN(C(=O)CCC(F)(F)F)CC2)C1`, in experiment [1], the EC50 is below 0.038 µM. The IC50 in experiment [2] turned out to be 0.05 µM. On the same counts, the results for `CCCCCCOC1=NOC2(CCN(C(=O)CCC(F)(F)F)CC2)C1` are below 0.038 µM and 0.05 µM.

Turning to `O=C(CCC(F)(F)F)N1CCC(c2ncc(F)cc2F)CC1`, the EC50 in experiment [1] is below 0.15 µM. Besides, in experiment [2], the IC50 is 0.01 µM. As for `COc1ccc(Nc2nn3c(O)cc(C)nc3c2C(=O)Nc2ccc(F)c(Cl)c2)cc1`, in experiment [3], the MIC worked out at 25 mg/L (≈ 56.6 µM). For `O=C(CCCC(F)(F)F)N1CCC(c2cncc(Cl)c2)CC1`, the EC50 in experiment [1] was below 0.15 µM. In experiment [2], the IC50 was 0.01 µM. Consider `O=C(CCC(F)(F)F)N1CCC(c2cncc(Cl)c2)C1` (configuration not stated), for which, in experiment [1], the EC50 was below 0.15 µM. In addition, the IC50 in experiment [2] is 0.01 µM.

Turning to `O=C(CCC(F)(F)F)N1CCC(F)(c2cccnc2)CC1`, the EC50 in experiment [1] was below 0.15 µM. Also, in experiment [2], the IC50 was determined as 0.01 µM. With `Cc1cc(O)n2nc(N3CCCC3)c(C(=O)Nc3ccc(Cl)c(Cl)c3)c2n1`, the MIC in experiment [3] amounted to 25 mg/L (≈ 61.5 µM).

Regarding `O=C(CCC(F)(F)F)N1CCC(F)(c2ccnc(C(F)(F)F)c2)CC1`, the EC50 in experiment [1] was below 0.15 µM. In experiment [2], the IC50 turned out to be 0.01 µM.

`Cc1ccc(Nc2nn3c(O)cc(C)nc3c2C(=O)Nc2ccccc2)cc1`: the MIC in experiment [3] is 100 mg/L (≈ 268 µM). For `O=S(=O)(NCCO)c1ccc(-c2nnn(Cc3ccnnc3)n2)cc1`, the MIC in experiment [4] is 0.1 µM (≈ 0.0361 µg/mL).

For `Cc1cc(O)n2nc(Nc3ccc(Cl)c(Cl)c3)c(C(=O)Nc3cccc(C)c3C)c2n1`, the MIC in experiment [3] was found to be 50 mg/L (≈ 110 µM).

Consider `O=S(=O)(NCCO)c1ccc(-c2nnn(Cc3cccnn3)n2)cc1`, for which the MIC in experiment [4] worked out at 0.1 µM (≈ 0.0361 µg/mL).
